Key:
Eμ-myc lymphomas [1] = experiment: In vivo therapy assay (survival); set-up: species or system C57BL/6 mice; details: 5.6 mg/kg i.v. every 4 d, four doses
Description: (§1) For therapy experiments, Eμ-myc lymphomas were transplanted into C57BL/6 mice and treatment with romidepsin or vehicle commenced when WBC counts in the peripheral blood reached a pathologic threshold (>13×10^3/μL).
For in vivo apoptosis assays, C57BL/6 mice were injected with Eμ-myc lymphomas (5×10^5 cells per animal) and after 10 to 15 days on which lymph nodes became well-palpable romidepsin (5.6 mg/kg) was administered i.v. After the indicated time points, mice were sacrificed and cells were harvested from brachial lymph nodes for fluorescence-activated cell sorting-based assays to measure apoptotic signaling (Lindemann et al., Proc. Nat. Acad. Sci. USA 104:8071-8078, 2007). To assess therapeutic efficacy of romidepsin, C57BL/6 mice were injected with Eμ-myc lymphomas of the indicated genotypes i.v. (5×10^5 cells per animal). Peripheral WBC counts were then monitored until they exceeded 13×10^3/μL (Sysmex Hematology Analyzer K-1000) and romidepsin was administered at 5.6 mg/kg i.v. once every 4 days for a total of four injections. […] Mice in the control cohort received the corresponding amount of vehicle. Cohorts consisted of 8 to 11 mice each, 2 to 3 independently derived lymphomas per genotype. Peripheral WBC counts and body weights were recorded weekly. […] For analysis of therapeutic efficacy, tumor-induced mortality “events” were recorded. […]

[2] = tested on: 102Eμ-myc/Bcl-2 lymphomas; experiment: In vitro cell death analysis, time course; assay type: cell-based, mouse; details: 3.0 nmol/L; up to 72 h
[3] = tested on: 4242Eμ-myc/Bcl-2 lymphomas; experiment: In vivo apoptosis assay; set-up: species or system C57BL/6 mice; details: 5.6 mg/kg i.v.; later time points (>24 h)
Description: (§2) For in vivo apoptosis assays, C57BL/6 mice were injected with Eμ-myc lymphomas (5×10^5 cells per animal) and after 10 to 15 days on which lymph nodes became well-palpable romidepsin (5.6 mg/kg) was administered i.v. After the indicated time points, mice were sacrificed and cells were harvested from brachial lymph nodes for fluorescence-activated cell sorting-based assays to measure apoptotic signaling (Lindemann et al., Proc. Nat. Acad. Sci. USA 104:8071-8078, 2007). To assess therapeutic efficacy of romidepsin, C57BL/6 mice were injected with Eμ-myc lymphomas of the indicated genotypes i.v. (5×10^5 cells per animal). Peripheral WBC counts were then monitored until they exceeded 13×10^3/μL (Sysmex Hematology Analyzer K-1000) and romidepsin was administered at 5.6 mg/kg i.v. once every 4 days for a total of four injections. […] Mice in the control cohort received the corresponding amount of vehicle. Cohorts consisted of 8 to 11 mice each, 2 to 3 independently derived lymphomas per genotype. Peripheral WBC counts and body weights were recorded weekly. On signs of major distress or when lymphomas were relapsing as indicated by enlarged brachioaxial lymph nodes, mice were euthanized and a necropsy was done. For analysis of therapeutic efficacy, tumor-induced mortality “events” were recorded. Kaplan-Meier analysis was done and comparisons made using the log-rank (Mantel-Cox) test (MedCalc software version 8.0.2.0).

[4] = tested on: 102Eμ-myc/Bcl-2 lymphomas; experiment: In vivo apoptosis assay; set-up: species or system C57BL/6 mice; details: 5.6 mg/kg i.v.; even at 48 h
Description: as §2

[5] = tested on: 229Eμ-myc/Bcl-2 lymphomas; experiment: In vivo apoptosis assay; set-up: species or system C57BL/6 mice; details: 5.6 mg/kg i.v.; later time points (>24 h)
Description: as §2

[6] = tested on: 226Eμ-myc/Bcl-2 lymphomas; experiment: In vivo apoptosis assay; set-up: species or system C57BL/6 mice; details: 5.6 mg/kg i.v.; even at 36 h
Description: as §2

Eμ-myc/Bcl-2 lymphomas = experiment: In vivo apoptosis assay; set-up: species or system C57BL/6 mice; details: all four Eμ-myc/Bcl-2 lymphomas; 5.6 mg/kg i.v.; 24 h after exposure
Description: as §2

Eμ-myc lymphomas [7] = experiment: In vivo apoptosis assay; set-up: species or system C57BL/6 mice; details: all four Eμ-myc lymphomas in lymph nodes; 5.6 mg/kg i.v.; 24-h time course
Description: as §2

[8] = tested on: 4242Eμ-myc/Bcl-2 lymphomas; experiment: In vivo therapy assay (Kaplan-Meier survival); set-up: species or system C57BL/6 mice; details: 5.6 mg/kg i.v. every 4 d, four doses
Description: (§3) FIG. 4. […] C57BL/6 mice (10 mice per group) bearing (FIG. 4A) 4242Eμ-myc, (FIG. 4B) 229Eμ-myc, (FIG. 4C) 226Eμ-myc, (FIG. 4D) 102Eμ-myc, (FIG. 4E) 4242Eμ-myc/Bcl-2, (FIG. 4F) 229Eμmyc/Bcl-2, (FIG. 4G) 226Eμ-myc/Bcl-2, and (FIG. 4H) 102Eμ-myc/Bcl-2, lymphomas were treated with romidepsin or vehicle. Therapy commenced after WBC counts reached ≧13×10^3/μL. Therapy consisted of either 5.6 mg/kg romidepsin (injected i.v. every 4 d for a total of four doses) or vehicle.
as §1, §2

[9] = tested on: 102Eμ-myc/Bcl-2 lymphomas; experiment: In vivo therapy assay (Kaplan-Meier survival); set-up: species or system C57BL/6 mice; details: 5.6 mg/kg i.v. every 4 d, four doses
Description: as §3, §1, §2

229Eμ-myc lymphomas = experiment: In vivo therapy assay (Kaplan-Meier survival); set-up: species or system C57BL/6 mice; details: 5.6 mg/kg i.v. every 4 d, four doses; vehicle 20 days; P<0.0001
Description: as §3, §1, §2

[10] = tested on: 229Eμ-myc/Bcl-2 lymphomas; experiment: In vivo therapy assay (Kaplan-Meier survival); set-up: species or system C57BL/6 mice; details: 5.6 mg/kg i.v. every 4 d, four doses
Description: as §3, §1, §2

[11] = tested on: 226Eμ-myc/Bcl-2 lymphomas; experiment: In vivo therapy assay (Kaplan-Meier survival); set-up: species or system C57BL/6 mice; details: 5.6 mg/kg i.v. every 4 d, four doses
Description: as §3, §1, §2

4242Eμ-myc lymphomas = experiment: In vivo therapy assay (Kaplan-Meier survival); set-up: species or system C57BL/6 mice; details: 5.6 mg/kg i.v. every 4 d, four doses; vehicle 19 d; P<0.0003
Description: as §3, §1, §2

102Eμmyc lymphomas = experiment: In vivo therapy assay (Kaplan-Meier survival); set-up: species or system C57BL/6 mice; details: 5.6 mg/kg i.v. every 4 d, four doses; vehicle 14 d; P<0.0001
Description: as §3, §1, §2

226Eμ-myc lymphomas = experiment: In vivo therapy assay (Kaplan-Meier survival); set-up: species or system C57BL/6 mice; details: 5.6 mg/kg i.v. every 4 d, four doses; vehicle 15 d; P<0.0001
Description: as §3, §1, §2

Substance: (1S,4S,10S,16E,21R)-7-[(2Z)-ethylidene]-4,21-diisopropyl-2-oxa-12,13-dithia-5,8,20,23-tetraazabicyclo[8.7.6]tricos-16-ene-3,6,9,19,22-pentanone [Romidepsin]
- survival of mice compared with vehicle-treated mice (Eμ-myc lymphomas [1]): significantly extended
- cell killing in time course [2]: remained relatively insensitive
- apoptosis in vivo [3]: did undergo apoptosis at later time points
- apoptosis in vivo [4]: remained insensitive
- apoptosis in vivo [5]: did undergo apoptosis at later time points
- apoptosis in vivo [6]: remained insensitive
- apoptosis in vivo (Eμ-myc/Bcl-2 lymphomas): resistant to romidepsin-induced apoptosis
- apoptosis in vivo (outer cell membrane damage, DNA fragmentation) (Eμ-myc lymphomas [7]): sensitive to romidepsin
- survival of mice compared with vehicle-treated mice [8]: significantly extended the survival
- median survival ([8]; vehicle 12 d, P<0.0001): 22.5 days
- therapeutic benefit (survival) [9]: little or no therapeutic benefit
- median survival ([9]; vehicle 11 d, P<0.07): 14.5 days
- median survival (229Eμ-myc lymphomas): 30 days
- survival of mice compared with vehicle-treated mice [10]: significantly extended the survival
- median survival ([10]; vehicle 18 d, P<0.0001): 30 days
- therapeutic benefit (survival) [11]: little or no therapeutic benefit
- median survival ([11]; vehicle 16 d, P=0.86): 16 days
- median survival (4242Eμ-myc lymphomas): 28 days
- median survival (102Eμmyc lymphomas): 22 days
- median survival (226Eμ-myc lymphomas): 19.5 days

Source: US20110269699A1, “CANCER THERAPY” (priority 2008, published 2011)
